Assay results: patent US9399649B2, “Compounds for treating spinal muscular atrophy” (PTC Therapeutics Inc., priority 2012, dated 2016)

Columns and labels:
[1] = test system: gems (Smn-dependent nuclear speckles); assay: Gems count (Smn-dependent nuclear speckle count) assay; format: cell-based, human; conditions: SMA Type 1 patient cells, 48 hour, FIG. 9
Description: The level of Smn protein directly correlates with the amount of nuclear foci, also known as gems, produced upon staining the cell with a fluorescently labeled anti-Smn antibody (Liu and Dreyfuss, EMBO J., 1996, 15:3555). Gems are multi-protein complexes whose formation is nucleated by the Smn protein and the gems count assay is used to evaluate the level of Smn protein in the cell. As described herein, the gems count assay is used to quantify the level of Smn protein in SMA patient fibroblast cells treated with a test compound.
Cells are thawed and incubated in DMEM-10% FBS for 72 hours, then trypsinized, counted and resuspended to 100,000 cells/mL in DMEM-10% FBS. 2 mL of the cell suspension is plated in a 6-well cell culture plate with a sterile cover slip and incubated for 3 to 5 hours. Test compounds are serially diluted 3.16-fold in 100% DMSO to generate a 7-point dilution curve. […]
Cell culture medium is aspirated from the wells containing cover slips and gently washed three times with cold PBS. […] The number of gems is counted per ≧150 nuclei and % activation is calculated using DMSO and 10 nM bortezomib as controls. For each test compound, the cells are examined at all wavelengths to identify test compounds with inherent fluorescence.

[2] = test system: Smn protein; assay: Smn protein assay in tissues of adult C/C-allele SMA mice; format: in vivo; conditions: 10 mg/kg BID orally for 10 days, brain, spinal cord, muscle and liver, relative to vehicle group, FIG. 11
Procedure: This Smn protein assay compares tissues from test compound treated mice with those from DMSO vehicle treated mice to determine the increase in levels of Smn protein produced from the human SMN2 gene.
The tissue samples in Safe-Lock tubes are weighed and the volume of RIPA buffer containing the protease inhibitor cocktail is added based on the weight to volume ratios for each type of tissue: Brain (50 mgmL), Muscle (50 mgmL) and Spinal Cord (25 mgmL).
Tissues are homogenized using the TissueLyzer by bead milling. 5 mm stainless steel beads are added to the sample and shaken vigorously for 5 minutes at 30 Hz in the TissueLyzer. […] Fluorescence for each well of the plate at 665 nm and 620 nm is measured on an EnVision multilabel plate reader (Perkin-Elmer). The total protein in the tissue homogenate is measured using the BCA assay according to the manufacturer's protocol.
The normalized fluorescence signal is calculated for each sample, Blank and vehicle control well by dividing the signal at 665 nm by the signal at 620 nm. Normalizing the signal accounts for possible fluorescence quenching due to the matrix effect of the tissue homogenate. […] The ΔF value for each tissue sample well is divided by the total protein quantity (determined using the BCA assay) for that tissue sample. […]

Compound: Cc1cn2cc(-c3cc4ccc(N5CCN6CCC[C@H]6C5)cc4c(=O)o3)nc2c(C)n1 [Cpd 69, 3-(6,8-dimethylimidazo[1,2-a]pyrazin-2-yl)-7-[(8aS)-hexahydropyrrolo[1,2-a]pyrazin-2(1H)-yl]-1H-isochromen-1-one]
- gems (nuclear speckle) count relative to DMSO [1]: progressively more gems
- total protein normalized Smn level in tissues [2]: increased in brain, spinal cord, muscle and liver tissues

Compound: Cc1cn2cc(-c3cc4ccc(N5CCN(C)CC5)cc4c(=O)o3)nc2c(C)n1 [Cpd 65, 3-(6,8-dimethylimidazo[1,2-a]pyrazin-2-yl)-7-(4-methylpiperazin-1-yl)-1H-isochromen-1-one]
- gems (nuclear speckle) count relative to DMSO [1]: progressively more gems
- total protein normalized Smn level in tissues [2]: increased in brain, spinal cord, muscle and liver tissues
